According to patent US11331299B2, “Medicinal use of serrulatane diterpenes” (The University of Sydney, priority 2016, dated 2022):
Read-outs that look alike come from different tables or passages of the source.

Tested on: 280 human cancer cell lines
Experiment: OncoPanel cell proliferation assay (10-day)
Type: cell-based
Conditions: Homo sapiens; for EC50: read-out: Cell Count EC50; for GI50: read-out: Cell Count GI50; for IC50: read-out: Cell Count IC50
[1] = NCI-H292, NCI-H292, Lung - NSCLC
[2] = NCI-H295R, Endocrine - Adrenal gland
[3] = NCI-H441, NCIH441, Lung - NSCLC
[4] = NCI-H460, NCI-H460, Lung - NSCLC
[5] = NCI-H520, NCI-H520, Lung - NSCLC
[6] = NCI-H596, NCI-H596, Lung - NSCLC
[7] = NCI-H661, NCI-H661, Lung - NSCLC
[8] = NTERA-2-cl-D1, NTERA-2 cl.D1, Testis
[9] = OVCAR-3, OVCAR3, Female GU - Ovary
[10] = RPMI-7951, RPMI-7951, Skin (Melanoma)
[11] = SAOS-2, SaOS2, Soft Tissue - Osteosarcoma

CC(C)=CCC[C@@H]1C(O)Oc2c(C)cc(O)c3c2[C@H]1CC[C@H]3C (some centres unmarked) [Compound 2, 5,18-epoxyserrulat-14-en-8,18-diol]
EC50 [1]: 16.7 µM | GI50 [1]: 16.6 µM | IC50 [1]: 16.7 µM | EC50 [2]: > 30 µM | GI50 [2]: > 30 µM | IC50 [2]: > 30 µM | EC50 [3]: > 30 µM | GI50 [3]: > 30 µM | IC50 [3]: > 30 µM | EC50 (NCI-H446, NCIH446, Lung - SCLC): 9.75 µM | GI50 (NCI-H446, NCIH446, Lung - SCLC): 9.77 µM | IC50 (NCI-H446, NCIH446, Lung - SCLC): 9.85 µM | EC50 [4]: 5.57 µM | GI50 [4]: 5.91 µM | IC50 [4]: 5.92 µM | EC50 (NCI-H508, NCI-H508, Colon): > 30 µM | GI50 (NCI-H508, NCI-H508, Colon): > 30 µM | IC50 (NCI-H508, NCI-H508, Colon): > 30 µM | EC50 [5]: 9.03 µM | GI50 [5]: 9.17 µM | IC50 [5]: 9.2 µM | EC50 [6]: 12 µM | GI50 [6]: 14.4 µM | IC50 [6]: 15.1 µM | EC50 [7]: 9.51 µM | GI50 [7]: 9.51 µM | IC50 [7]: 9.51 µM | EC50 (NCI-H747, NCI-H747, Colon): 12.3 µM | GI50 (NCI-H747, NCI-H747, Colon): > 30 µM | IC50 (NCI-H747, NCI-H747, Colon): > 30 µM | EC50 [8]: 12.5 µM | GI50 [8]: 12.3 µM | IC50 [8]: 12.5 µM | EC50 (OCUG-1, OCUG-1, Liver): > 30 µM | GI50 (OCUG-1, OCUG-1, Liver): 29.9 µM | IC50 (OCUG-1, OCUG-1, Liver): > 30 µM | EC50 (OE19, OE19, Head and Neck): > 30 µM | GI50 (OE19, OE19, Head and Neck): > 30 µM | IC50 (OE19, OE19, Head and Neck): > 30 µM | EC50 (OE21, OE21, Head and Neck): > 30 µM | GI50 (OE21, OE21, Head and Neck): > 30 µM | IC50 (OE21, OE21, Head and Neck): > 30 µM | EC50 [9]: 14.4 µM | GI50 [9]: 13.7 µM | IC50 [9]: 14.4 µM | EC50 (PA-1, Female GU - Ovary): 11.6 µM | GI50 (PA-1, Female GU - Ovary): 16.2 µM | IC50 (PA-1, Female GU - Ovary): 16.3 µM | EC50 (PANC-1, PANC-1, Pancreas): 7.06 µM | GI50 (PANC-1, PANC-1, Pancreas): 7.01 µM | IC50 (PANC-1, PANC-1, Pancreas): 7.06 µM | EC50 (PC-3, Prostate): 12 µM | GI50 (PC-3, Prostate): 11.8 µM | IC50 (PC-3, Prostate): 12 µM | EC50 (PFSK-1, PFSK-1, CNS - Glioma): 14.7 µM | GI50 (PFSK-1, PFSK-1, CNS - Glioma): 14.6 µM | IC50 (PFSK-1, PFSK-1, CNS - Glioma): 14.7 µM | EC50 (PSN1, PSN-1, Pancreas): 12 µM | GI50 (PSN1, PSN-1, Pancreas): 12 µM | IC50 (PSN1, PSN-1, Pancreas): 12 µM | EC50 (RD, Soft Tissue - Sarcoma): 2.98 µM | GI50 (RD, Soft Tissue - Sarcoma): 2.96 µM | IC50 (RD, Soft Tissue - Sarcoma): 2.98 µM | EC50 (RKO, Colon): 7.22 µM | GI50 (RKO, Colon): 7.92 µM | IC50 (RKO, Colon): 7.92 µM | EC50 (RKOE6, RKOE6, Colon): 6.95 µM | GI50 (RKOE6, RKOE6, Colon): 6.93 µM | IC50 (RKOE6, RKOE6, Colon): 6.95 µM | EC50 (RPMI-6666, RPMI 6666, Lymphoma): 10.4 µM | GI50 (RPMI-6666, RPMI 6666, Lymphoma): 10.7 µM | IC50 (RPMI-6666, RPMI 6666, Lymphoma): 10.7 µM | EC50 [10]: 5.77 µM | GI50 [10]: 6.13 µM | IC50 [10]: 6.15 µM | EC50 (RPMI-8226, RPMI 8226, Myeloma): 2.02 µM | GI50 (RPMI-8226, RPMI 8226, Myeloma): 1.95 µM | IC50 (RPMI-8226, RPMI 8226, Myeloma): 2.02 µM | EC50 (RS4-11, RS4, 11, Leukemia): 6.43 µM | GI50 (RS4-11, RS4, 11, Leukemia): 6.3 µM | IC50 (RS4-11, RS4, 11, Leukemia): 6.43 µM | EC50 (Raji, Lymphoma): 8.04 µM | GI50 (Raji, Lymphoma): 8.04 µM | IC50 (Raji, Lymphoma): 8.04 µM | EC50 (Ramos, Ramos (RA 1), Lymphoma): 4.39 µM | GI50 (Ramos, Ramos (RA 1), Lymphoma): 4.39 µM | IC50 (Ramos, Ramos (RA 1), Lymphoma): 4.39 µM | EC50 [11]: 15.7 µM | GI50 [11]: 15.1 µM | IC50 [11]: 15.7 µM | EC50 (SCC-4, SCC-4, Head and Neck): > 30 µM | GI50 (SCC-4, SCC-4, Head and Neck): > 30 µM | IC50 (SCC-4, SCC-4, Head and Neck): > 30 µM | EC50 (SCC-9, SCC-9, Head and Neck): 26.7 µM | GI50 (SCC-9, SCC-9, Head and Neck): 27.3 µM | IC50 (SCC-9, SCC-9, Head and Neck): 27.3 µM | EC50 (SCC-25, SCC-25, Head and Neck): > 30 µM | GI50 (SCC-25, SCC-25, Head and Neck): > 30 µM | IC50 (SCC-25, SCC-25, Head and Neck): > 30 µM | EC50 (SCaBER, Bladder): 11.5 µM | GI50 (SCaBER, Bladder): 11.4 µM
